The source of these data is patent US9790231B2 (LUPIN LIMITED, priority 2013, dated 2017).

Where only a bound is given, the exact number is not on record here.

The IC50 is the concentration needed to halve the response being measured. The low end stands for inhibition by little substance, the high end for a need for much substance.

The subject of the assay is IL-2 secretion by Jurkat T cells. Description: Inhibition of IL-2 secretion (PHA-stimulated Jurkat T cells, ELISA). Format: cell-based. To be noted: Homo sapiens, 20 to 24 hours. The protocol: The CRAC channel modulatory activity of the compounds were thus evaluated by measuring the secretion of IL-2 by antigen stimulated T-cells in vitro. Alternatively, such activity can also be evaluated by assay methods known to one skilled in the art.
Inhibition of IL-2 secretion: Jurkat T cells were seeded at a density of 0.5 to 1 million cells per well in RPMI medium. Test compounds from this invention were added to the cells at different concentrations. This was followed by the addition of PHA, a T cell mitogen after 10 minutes. The cells were then incubated for 20 to 24 hours in a CO2 incubator at 37° C. After incubation with the compounds, cells were centrifuged; the supernatant was collected and processed for ELISA to quantitate the amount of IL-2 secreted. A commercial ELISA kit (R&D Systems, Inc. Minneapolis, Minn., USA) was used to estimate the IL-2 concentrations. Amount of IL-2 secreted by cells stimulated with PHA was considered as a 100% maximal signal and the decrease in amount of IL-2 secreted by cells treated with the test compounds was expressed as percent inhibition of the maximal signal. The dose response data was analyzed using 4-parametric sigmoidal dose response (variable slope) curve-fit.
For orientation: In an ELISA, binding on a coated surface is turned into a signal by an enzyme label.
The compound `CCc1cc2c(cc1-c1ccc(C(=O)Nc3c(F)cncc3F)cc1)OC(C)(C)CC2` [Example 49, N-(3,5-Difluoropyridin-4-yl)-4-(6-ethyl-2,2-dimethylchroman-7-yl)benzamide] returned an IC50 of less than 25 nM. Under `Cc1cc2c(cc1-c1ccc(NCc3c(F)cccc3F)nc1)OC1(CCC1)CC2=O` [Example 39, 7-(6-((2,6-Difluorobenzyl)amino)pyridin-3-yl)-6-methylspiro[chroman-2,1′-cyclobutan]-4-one] stands less than 25 nM; under `Cc1cc2c(cc1-c1ccc(NC(=O)c3c(C)cccc3F)cc1)OC1(CCC1)CC2` [Example 9, 2-Fluoro-6-methyl-N-(4-(6-methylspiro[chroman-2,1′-cyclobutan]-7-yl)phenyl)benzamide], 25 to 50 nM. Under `Cc1cc2c(cc1-c1ccc(NC(=O)c3c(F)cccc3Cl)cc1)OC1(CCC1)CC2` [Example 8, 2-Chloro-6-fluoro-N-(4-(6-methylspiro[chroman-2,1′-cyclobutan]-7-yl)phenyl)benzamide] stands less than 25 nM; under `Cc1cc2c(cc1-c1ccc(NC(=O)c3c(F)cccc3F)nc1)OC1(COC1)CC2=O` [Example 124, 2,6-Difluoro-N-(5-(6-methyl-4-oxospiro[chroman-2,3′-oxetan]-7-yl)pyridin-2-yl)benzamide], 25 to 50 nM; under `CCc1cc2c(cc1-c1ccc(NC(=O)c3c(F)cccc3F)cc1)OC1(CCC1)CC2` [Example 24, N-(4-(6-Ethylspiro[chroman-2,1′-cyclobutan]-7-yl)phenyl)-2,6-difluorobenzamide], less than 25 nM.

Compound `Cc1cc2c(cc1-c1ccc(NCc3c(F)cccc3F)nc1)OC(C)(C)CC2=O` [Example 35, 7-(6-((2,6-Difluorobenzyl)amino)pyridin-3-yl)-2,2,6-trimethylchroman-4-one] had an IC50 of less than 25 nM. Under `O=C(Nc1ccc(C2=CC3(CCC3)Oc3ccccc32)cc1)c1c(F)cccc1F` [Example 68, 2,6-Difluoro-N-(4-(spiro[chromene-2,1′-cyclobutan]-4-yl)phenyl)benzamide] stands less than 25 nM.

The compound `Cc1c(-c2cnc(NC(=O)c3c(F)cccc3F)cn2)ccc2c1OC(C)(C)CC2` [Example 7, 2,6-Difluoro-N-(5-(2,2,8-trimethylchroman-7-yl)pyrazin-2-yl)benzamide] showed a concentration for half-maximal inhibition (IC50) of 50 to 100 nM. Under `Cc1cccc2c1OC1(C=C2c2ccc(C(=O)Nc3c(F)cncc3F)cc2)CCC1` [Example 111, N-(3,5-Difluoropyridin-4-yl)-4-(8-methylspiro[chromene-2,1′-cyclobutan]-4-yl)benzamide] stands 25 to 50 nM; under `CCc1cc2c(cc1-c1ccc(C(=O)Nc3c(F)cncc3F)cc1)OC(C)(C)CC2=O` [Example 42, N-(3,5-Difluoropyridin-4-yl)-4-(6-ethyl-2,2-dimethyl-4-oxochroman-7-yl)benzamide], less than 25 nM; under `COCC1(C)C=C(c2ccc(NC(=O)c3c(F)cccc3F)cn2)c2cccc(C)c2O1` (stereo not shown) [Example 105, 2,6-Difluoro-N-(6-(2-(methoxymethyl)-2,8-dimethyl-2H-chromen-4-yl)pyridin-3-yl)benzamide], 100 to 500 nM. Then `Cc1cc2c(cc1-c1ccc(NC(=O)c3c(F)cccc3Cl)cc1)OC1(CCC1)CC2=O` [Example 11, 2-Chloro-6-fluoro-N-(4-(6-methyl-4-oxospiro[chroman-2,1′-cyclobutan]-7-yl)phenyl)benzamide], with 25 to 50 nM.

Compound `Cc1cc2c(cc1-c1ccc(NC(=O)c3c(F)cccc3F)cc1)OC(C)(C)CC2=O` [Example 1, 2,6-Difluoro-N-(4-(2,2,6-trimethyl-4-oxochroman-7-yl)phenyl)benzamide] gave a 50% inhibitory concentration (IC50) of 25 to 50 nM. Under `Cc1cc2c(cc1-c1cnc(NC(=O)c3c(F)cccc3F)cn1)OC(C)(CO)CC2` (stereo not shown) [Example 114, 2,6-Difluoro-N-(5-(2-(hydroxymethyl)-2,6-dimethylchroman-7-yl)pyrazin-2-yl)benzamide] stands 25 to 50 nM; under `Cc1cc2c(cc1-c1cnc(NC(=O)c3c(F)cccc3F)cn1)OC1(CCC1)CC2=O` [Example 36, 2,6-Difluoro-N-(5-(6-methyl-4-oxospiro[chroman-2,1′-cyclobutan]-7-yl)pyrazin-2-yl)benzamide], less than 25 nM; under `Cc1cc2c(cc1-c1ccc(NC(=O)c3c(F)cccc3F)cc1)OC1(CCC1)CC2` [Example 22, 2,6-Difluoro-N-(4-(6-methylspiro[chroman-2,1′-cyclobutan]-7-yl)phenyl)benzamide], less than 25 nM. Then `Cc1cccc2c1OC1(C=C2c2ccc(NC(=O)c3c(F)cccc3F)cn2)CCC1` [Example 102, 2,6-Difluoro-N(6-(8-methylspiro[chromene-2,1′-cyclobutan]-4-yl)pyridin-3-yl)benzamide], with 25 to 50 nM. Under `O=C(Nc1ccc(C2CC3(CCC3)Oc3ccccc32)cc1)c1c(F)cccc1F` (stereo not shown) [Example 69, 2,6-Difluoro-N-(4-(spiro[chroman-2,1′-cyclobutan]-4-yl)phenyl)benzamide] stands 100 to 500 nM; under `Cc1c(-c2ccc(NC(=O)c3c(F)cccc3F)cc2)ccc2c1OC1(CCC1)CC2` [Example 23, 2,6-Difluoro-N-(4-(8-methylspiro[chroman-2,1′-cyclobutan]-7-yl)phenyl)benzamide], 50 to 100 nM; under `Cc1cc2c(cc1-c1ccc(NC(=O)c3c(F)cccc3F)cc1)OC1(CC2=O)CN(C)C1` [Example 121, N-(4-(1,6′-Dimethyl-4′-oxospiro[azetidine-3,2′-chroman]-7′-yl)phenyl)-2,6-difluorobenzamide], 25 to 50 nM. As to `CC1(C)C=C(c2ccc(NC(=O)c3c(F)cccc3F)nc2)c2ccccc2O1` [Example 108, N-(5-(2,2-Dimethyl-2H-chromen-4-yl)pyridin-2-yl)-2,6-difluorobenzamide], the IC50 fell in the range of 25 to 50 nM. Compound `COCC1(C)C=C(c2ccc(NC(=O)c3c(F)cccc3F)cc2)c2cc(C)ccc2O1` (stereo not shown) [Example 91] registered a half-inhibitory concentration (IC50) of 25 to 50 nM. `CC1(C)CC(c2ccc(NC(=O)c3c(F)cccc3F)cc2)c2ccccc2O1` (stereo not shown) [Example 80, N-(4-(2,2-Dimethylchroman-4-yl)phenyl)-2,6-difluorobenzamide] yielded a concentration for half-maximal inhibition (IC50) of 100 to 500 nM.

`CC1(C)C=C(c2cnc(NC(=O)c3c(F)cccc3F)cn2)c2ccccc2O1` [Example 81, N-(5-(2,2-Dimethyl-2H-chromen-4-yl)pyrazin-2-yl)-2,6-difluorobenzamide] showed an IC50 of 50 to 100 nM. Under `Cc1cc2c(cc1-c1cnc(NC(=O)c3c(F)cccc3F)cn1)OC(C)(C)CC2=O` [Example 4, 2,6-Difluoro-N-(5-(2,2,6-trimethyl-4-oxochroman-7-yl)pyrazin-2-yl)benzamide] stands less than 25 nM; under `Cc1ccc2c(c1)C(c1ccc(NC(=O)c3c(F)cccc3F)nc1)=CC1(CCC1)O2` [Example 106, 2,6-Difluoro-N-(5-(6-methylspiro[chromene-2,1′-cyclobutan]-4-yl)pyridin-2-yl)benzamide], 100 to 500 nM. `Cc1cccc2c1OC(C)(C)C=C2c1ccc(NC(=O)c2c(F)cccc2F)nc1` [Example 98, 2,6-Difluoro-N(5-(2,2,8-trimethyl-2H-chromen-4-yl)pyridin-2-yl)benzamide] yielded an IC50 of 25 to 50 nM. Then `Cc1cc2c(cc1-c1ccc(NC(=O)c3c(F)cccc3F)nc1)OC(C)(C)CC2=O` [Example 6], with 25 to 50 nM; and `Cc1cc2c(cc1-c1ccc(C(=O)Nc3c(F)cncc3F)cc1)OC(C)(C)CC2` [Example 50, N-(3,5-Difluoropyridin-4-yl)-4-(2,2,6-trimethylchroman-7-yl)benzamide], with less than 25 nM.

In the case of `CCc1cc2c(cc1-c1ccc(NC(=O)c3c(F)cccc3F)cc1)OC1(COC1)CC2=O` [Example 125, N-(4-(6-Ethyl-4-oxospiro[chroman-2,3′-oxetan]-7-yl)phenyl)-2,6-difluorobenzamide], the IC50 is less than 25 nM. For `Cc1cc2c(cc1-c1ccc(NC(=O)c3c(F)cccc3F)cc1)OC1(CCC1)CC2=O` [Example 16, 2,6-Difluoro-N-(4-(6-methyl-4-oxospiro[chroman-2,1′-cyclobutan]-7-yl)phenyl)benzamide], the 50% inhibitory concentration (IC50) is less than 25 nM. Under `CCc1cc2c(cc1-c1ccc(NC(=O)c3c(F)cccc3F)cc1)OC(C)(C)CC2` [Example 48b, N-(4-(6-Ethyl-2,2-dimethylchroman-7-yl)phenyl)-2,6-difluorobenzamide] stands less than 25 nM; under `Cc1c(-c2ccc(NC(=O)c3c(F)cccc3F)cc2)ccc2c1OC1(CCC1)CC2=O` [Example 19, 2,6-Difluoro-N-(4-(8-methyl-4-oxospiro[chroman-2,1′-cyclobutan]-7-yl)phenyl)benzamide], 100 to 500 nM; under `O=C(Nc1ccc(C2=CC3(CCC3)Oc3ccccc32)cn1)c1c(F)cccc1F` [Example 72, 2,6-Difluoro-N-(5-(spiro[chromene-2,1′-cyclobutan]-4-yl)pyridin-2-yl)benzamide], 25 to 50 nM. Under `Cc1cc2c(cc1-c1ccc(C(=O)Nc3c(F)cncc3F)cc1)OC1(CCC1)CC2` [Example 66, N-(3,5-Difluoropyridin-4-yl)-4-(6-methylspiro[chroman-2,1′-cyclobutan]-7-yl)benzamide] stands less than 25 nM; under `CCc1cc2c(cc1-c1ccc(NC(=O)c3c(F)cccc3F)cc1)OC(C)(CO)CC2=O` (stereo not shown) [Example 58, N-(4-(6-Ethyl-2-(hydroxymethyl)-2-methyl-4-oxochroman-7-yl)phenyl)-2,6-difluorobenzamide], 50 to 100 nM.
